According to patent US20040018500A1, “Methods and systems for analyzing complex biological systems” (priority 2001, published 2004):

Columns and labels:
[1] = tested on: Saccharomyces cerevisiae wild type strain BY4743; test: AF1 combined gene expression and metabolite data mapped to KEGG reactions and pathways; format: cell-based
Description: In AF1, two different technologies were utilized: gene expression analysis (for examination of mRNA expression) and metabolite analysis. […] As noted previously, existing metabolic databases may be helpful in practicing the methods and systems of the present invention, but many databases include limitations that make their use in data analysis and pathway mapping less than straightforward. […] This caveat to KEGG makes it difficult to pinpoint the correct pathway when attempting to link a gene to a specific pathway. […] The pathway score indicates how meaningful the mapping is, or how likely it is to be correctly indicative of the pathway involved in the perturbation under examination. The method provides a pathway score based on perturbation levels of genes and/or compounds and the information content of each gene and/or compound in the pathway, i.e., a pathway score indicates the extent to which other pathways are mapped to a gene/compound. For example, imagine that two genes are perturbed in a particular experiment. One gene maps to only one pathway, giving a high degree of probability that the perturbed pathway is the one identified in the mapping. The second gene maps to three pathways. In the later example, there is only one-third the probability that the pathway identified in the mapping is the one perturbed. The present invention provides a method for calculating the pathway scores, so that more weight is given to a score of a gene or compound that maps to only one pathway than to a score of a gene or compound that maps to multiple pathways. […] Where n=the total number of genes in the pathway; ipath—count=the number of pathways containing a gene; and j=the number of genes in the pathway that are perturbed. Another factor to be considered when weighting a pathway score is the degree of perturbation. Degree of perturbation can be calculated, for example, based on a number of standard deviations from a norm, and included in an equation such as the one shown above, so that not only the number of pathways is taken into account, but also accounts for the amount of gene transcript or compound present as compared to a control. Compounds were also linked to pathways using the KEGG database. […] Of the 676 compounds under consideration, 77 were detected in the AF1 samples. […] The multiple mapping feature of KEGG makes it difficult to pinpoint the correct pathway when trying to link a compound to a specific pathway. […] A pathway score calculation is applied to the compounds to account for both information content (number of pathways a compound maps to) and perturbation level. The data were then combined to determine the number of reactions showing an enzyme and at least one compound perturbed, and to determine the number of pathways having at least one enzyme and one perturbed compound perturbed. The results of the analysis are represented in Tables 16 and 17, and were difficult to interpret, illustrating that the ability to draw conclusions from compound mapping to pathways is limited when absent additional data.

[2] = tested on: Saccharomyces cerevisiae wild type strain BY4743; test: AF1 gene expression analysis (microarray) of yeast treated with antifungal drugs; format: cell-based; settings: p < 0.05; KEGG pathway mapping
Description: Saccharomyces cerevisiae wild type strain BY4743 was purchased from American Type Culture Center (ATCC, Manassas, Va.). The yeast strain was grown in YPD or SD media. […] The cultures started from fresh single colonies were grown in 1.0 ml YPD overnight at 30° C. […] The OD600 was adjusted to 1.0 with YPD media, then 2.0 ml of each was inoculated into three 250 ml flasks, each containing 50 ml of SD media. […] The cells were kept growing for another two hours, then collected by centrifugation at 4000 rpm for 5 minutes at 4° C. Pellets were washed once with ice-cold water, then were lyophilized overnight at 4° C. […] RNA quality was determined using the Bioanalyzer 2100 and the RNA 6000 assay (Agilent Technologies, Palo Alto, Calif.) according to manufacturer's instructions. RNA concentrations were determined spectrophotometrically by measuring the absorption at 260 nm in an Ultrospec 2000 (Pharmacia Biotech, Piscataway, N.J.). […] Labeled cRNAs were evaluated using the RNA 6000 assay on the Agilent Bioanalyzer 2100. Labeled cRNA concentrations were determined spectrophotometrically by measuring the absorption at 260 nm in an Ultrospec 2000 (Pharmacia Biotech, Piscataway, N.J.). […] Each feature was determined from an array's associated pattern file and a detection algorithm. […] Data was evaluated after combining results from fluor reversal replicate hybridizations. […]

## C[C@@H]1[C@H](O)[C@@H](C)/C=C/C=C/C=C/C=C/C=C/C=C/C=C/[C@H](O[C@@H]2O[C@H](C)[C@@H](O)[C@H](N)[C@@H]2O)C[C@@H]2O[C@](O)(C[C@@H](O)C[C@@H](O)[C@H](O)CC[C@@H](O)C[C@@H](O)CC(=O)O[C@H]1C)C[C@H](O)[C@H]2C(=O)O [Amphoteracin B]
[1]
  Number Of Pathways Having at Least One Enzyme and One Compound Perturbed (# Reactions): 37
  Number of Reactions Having an Enzyme and at Least One Compound Perturbed: 54
[2]
  # Pathways Affected by at Least One Gene: 97
